Data on one compound can be found in US10143696B2, “Methods and compositions for decreasing gastric emptying” (priority 2015, dated 2018).

The test system of data set [1] is Sprague-Dawley rats. The data set is described as follows: Repeated oral administration: gastric emptying, food intake, body weight. The class given is in vivo, rat. Here is the method: (§1) Rats were fasted overnight (16-18 hours) with free access to water. The next morning, compound was administered and animals were individually housed in bedding-free cages with pre-weighed food available ad libitum and access to water for 2 hours. The water and food were then removed and the remaining food was re-weighed. Gastric emptying of the ingested meal was assessed 4 hours later. Animals were euthanized by CO2 inhalation followed by thoracotomy. The abdominal cavity was opened, the pylorus and cardia were clamped and the stomach was removed. The excised stomach was weighed and then opened along the greater curvature, rinsed with tap water, lightly dried and re-weighed. The amount of food in the stomach (grams) was estimated based on the difference between the total weight of the stomach plus its contents and the weight of the stomach after the contents were removed. The meal ingested (food intake) was determined by the difference between pre- and post-feeding weight at the end of the 2 hour period. Gastric emptying during the 4 hour experiment is represented as: Gastric emptying=[1−(gastric content/food intake)]×100. Gastric Secretion
Male, Sprague-Dawley rats (weighing between 240-283 g each and 5-6 rats per test group) were orally dosed with 3 mg/kg, 10 mg/kg or 30 mg/kg of Compound A with a 0.5% MC vehicle or with a 0.5% MC vehicle alone once a day for five days and were then fasted overnight. The rats were then dosed again on the sixth day and placed in individual, bedding-free cages and allowed ad libitium access to pre-weighed food and water for two hours. The food and water were then removed and the food was reweighed. Data were analyzed using a one-way ANOVA followed by a Dunnett's Multiple Comparison Test, where *P<0.05 as compared to the appropriate vehicle. Data are represented as the means+S.E.M. % Gastric Emptying in 4 hours=(1−(gastric content/food intake))×100.

The test system of a further data set is cynomolgus monkeys. It is filed as in vivo. Here is the method:
Studies in cynomolgous monkeys were conducted by Battelle (Columbus, Ohio). Eleven monkeys, seven males and four females that had been previously received, quarantined, and acclimated and were naïve (females), or had not been used on other studies for a minimum of 6 months (males), were utilized. Prior to use on study, monkeys were acclimated to chair restraint for up to 2 hours. Chair restraint was used to facilitate dose administration and blood collection. Animals were individually housed in stainless steel cages. Monkeys were offered a certified diet twice daily and had access to fresh water ad libitum. The animals also were supplemented with fresh fruits and/or fresh vegetables. Monkeys were fasted overnight prior to dose administration.
Observations for moribundity and mortality were performed on all animals twice daily throughout the duration of the study. Cage-side clinical observations were recorded for all animals prior to dose administration and at the times of blood collection.
As such, a pharmacokinetic and observational study was conducted in cynomologous monkeys (FIG. 16). Plasma concentrations of Compound A were measured following a single oral dose of 10, 50 and 100 mg/kg up to 24 hours post-dosing (FIGS. 16A, B and C).

For data set [2], the system named is Sprague-Dawley rats. The experiment in a line: Gastric secretion volume and pH in fasted rats. It is filed as in vivo, rat. As for the experimental part:
Gastric section and acidity was assessed by direct measurement in fasted animals (Melo et al. (2006). “Effect of acid secretion blockade on acute gastric mucosal lesions induced by Tityus serrulatus scorpion toxin in anaesthetized rats.” Toxicon 48(5): 543-549). Rats were fasted with free access to water for 24 hours on wire inserts without bedding. The next day, all rats were dosed orally with 0.5% MC (5 ml/kg) to remove any residual stomach contents and test compound or vehicle was administered. The animals were water deprived for 3 hours, anesthetized with isoflurane (5% in O2), and a laparotomy was conducted followed by tight ligation of the pylorus and cardia. After ligation, the stomach was removed and the rat was immediately euthanized by decapitation. The stomach was opened along the greater curvature and gastric fluid collected into Eppendorf tubes and centrifuged (5 min at 10×1000 g). pH was determined by pipetting gastric fluid directly onto an indicator stick (Whatman, Panpeha Plus, pH0-14). Data are represented as the mean volume and mean pH.
Male, Sprague-Dawley rats (weighing between 254-270 g each and 6 rats per test group) were fasted overnight (24 hours) on wire inserts without bedding. The rats were first orally dosed with 0.5% MC vehicle and then subcutaneously injected with 3 mg/kg or 10 mg/kg of Compound A with a 25% HPBCD vehicle or with a 25% HPBCD vehicle alone. The test animals were water deprived for 3 hours and then anesthetized with isoflurane and the pylorus and cardia were tightly ligated. The stomachs were then removed and the rats were euthanized. The gastric fluid was removed from the stomachs and collected in eppendorf tubes by cutting along the greatest curvature and spun in a centrifuge. Gastric secretion data were analyzed by a one-way ANOVA using a Bonferroni Multiple Comparison test, where *P<0.05 and **P<0.01 as compared to the appropriate vehicle. Data are represented as the means+S.E.M. PH data were analyzed by a one-way ANOVA using Dunnett's Multiple Comparison Test. Data are represented as the means+S.E.M.
This Example measured volume and pH of gastric secretion three hours post subcutaneous administration of 10 mg/kg of Compound A. The animals were water deprived during this time.

A further data set relates to CD1 mice. The experiment in a line: Gastric emptying of a test meal in mice. It is filed as in vivo. As for the experimental part:
as §1
Male, CD1 mice (weighing between 30-36 g each and 6 mice per test group) were fasted overnight (19 hours). The mice then were subcutaneously administered 3 mg/kg of Compound A with a 25% HPBCD vehicle, a 25% HPBCD vehicle alone, orally administered 100 mg/kg of Compound A with a 0.5% MC vehicle, or a 0.5% MC vehicle alone. The mice were then placed in individual, bedding-free cages and allowed ad libitium access to pre-weighed food and water for two hours. The food and water were then removed and the food was reweighed. Gastric emptying was assessed four hours later by euthanizing the mice and analyzing the stomach and stomach contents. Data were analyzed using an unpaired t-test where *P<0.05 and ***P<0.001 and represented as the means+S.E.M. % Gastric Emptying in 4 hours=(1−(gastric content/food intake)×100).

Where [3] appears, read: 30 mg/kg p.o. once a day, over 5 days.
Where [4] appears, read: p.o. 3, 10, 30 mg/kg once a day for 6 days, 0.5% MC.
Setting [5] is: individual monkey presenting the highest plasma levels.
Setting [6] is: monkey, p.o. 100 mg/kg, animals affected/animals dosed, 100 mg/kg.
The mark [7] stands for this setting: Compound A 10 mg/kg s.c. alone, three hours post administration (Example 17).
Where [8] appears, read: s.c. 3, 10 mg/kg, 25% HPBCD, 3 hours (Example 10).
[9] abbreviates: p.o. 100 mg/kg, 0.5% MC vehicle.

Like-named read-outs stand apart in the source and are kept apart here.

In the case of `C[C@H](Nc1cc(C(N)=O)nc(-c2ccc(Oc3ccc(OC(F)(F)F)cc3)cc2)n1)C(N)=O` [Compound A], in the data set on Sprague-Dawley rats [1] (setting [3]), the “body weight lost as a percentage of total body weight” value amounted to 2.6% and the “mean body weight loss” value is recorded as 6.3 g. The body weight entry with Sprague-Dawley rats [1] (measured on day 5, p.o. 3, 10, 30 mg/kg once a day) is “decreased for all Compound A dosage levels”. In the data set on Sprague-Dawley rats [1] (setting [4]), the “% Gastric Emptying in 4 hours” value is “inhibited the percentage of gastric emptying” and the food intake result is on record as “decrease in food intake”. Also, in the data set with cynomolgus monkeys (setting [5]), the “food intake after 24 hrs post-dosing” value is listed as “reduced food intake for at least two additional days post dosing”; the “food intake and feces production up to 24 hrs post-dosing” value was “zero food intake and zero feces production”. The “food consumption or feces production” value in the data set on cynomolgus monkeys (monkey, p.o. 10 mg/kg) is reported as “no treatment related-effect was discernable”. For the same compound, the “Clinical Observations (frequency): Diarrhea” value in the data set on cynomolgus monkeys (monkey, p.o. 10 mg/kg, animals affected/animals dosed, 10 mg/kg) was 2 out of the 3 and (2/3). In addition, the “Clinical Observations (frequency): Distended/Bloated Abdomen” value in the data set on cynomolgus monkeys (monkey, p.o. 50 mg/kg, animals affected/animals dosed, 50 mg/kg) is 2 out of 4 and Abdomen (2/4). Moreover, in the data set on cynomolgus monkeys (setting [6]), the “Clinical Observations (frequency): Distended/Bloated Abdomen” value was 2 out of 4 and Abdomen (2/4); the “Clinical Observations (frequency): Low Food Consumption” value is 2 out of the 4 and Consumption (2/4). In addition, in the data set with Sprague-Dawley rats [2] (setting [7]), the “pH of gastric secretion” value was “increase in gastric secretion and pH”; the “volume of gastric secretion” value was “increase in gastric secretion and pH”. Besides, in the data set with Sprague-Dawley rats [2] (lansoprazole 30 mg/kg p.o. 30 minutes prior to Compound A 10 mg/kg s.c. (Example 17)), the “volume and pH of gastric secretion” value was “not different from that achieved by Compound A alone”. In the data set with Sprague-Dawley rats [2] (setting [8]), the “pH of gastric secretion” value is reported as “remains unaffected” and the “volume of gastric secretion” value is recorded as “increases with increasing dosages of Compound A”. In addition, in the data set with CD1 mice (setting [9]), the “% Gastric Emptying in 4 hours” value was “inhibit gastric emptying” and the stomach weight entry was “stomach weight increase”. In addition, the “% Gastric Emptying in 4 hours” value with CD1 mice (s.c. 3 mg/kg, 25% HPBCD vehicle) is given as “inhibit gastric emptying”.
